Legend:
[1] = system: rat vascular ring system precontracted with norepinephrine
[2] = system: murine model of renal ischemia-reperfusion injury; design: species or system mice; conditions: mouse, in vivo
[3] = system: rat model of myocardial ischemia-reperfusion injury (MIRI); conditions: in vivo
[4] = mouse, in vivo, ip

Substance: 2-cyano-1-(1-hydroxy-2,2,5,5-tetramethylpyrrolidin-3-yl)-3-(pyridin-3-yl)guanidine [compound 2]
- ED50 (ex vivo vasodilator potency) compared to pinacidil [1]: one log greater than that of pinacidil
- elevation in plasma blood urea nitrogen (BUN) [2]: profoundly attenuated
- elevation in plasma creatinine [2]: profoundly attenuated
- elevation in renal myeloperoxidase (MPO) [2]: profoundly attenuated
- protection against severe renal tubular necrosis (histologic studies) [2]: near total protection
- histologic features of injury (myocyte necrosis, edema, neutrophil infiltration) [3]: profoundly attenuated virtually all histologic features of injury
- mean arterial pressure (systemic hypotension) [3]: did not produce systemic hypotension
- myocardial myeloperoxidase (MPO) [3]: significantly reduced
- tissue infarction (infarct size) [3]: significantly reduced
- effect on blood glucose levels compared with saline vehicle group [4]: did not exhibit any significant effect
